Assay results taken from ChEMBL document CHEMBL3813681, “Synthesis and structure-activity relationship of 2,6-disubstituted pyridine derivatives as inhibitors of β-amyloid-42 aggregation” (Bioorg Med Chem Lett, 2016).
≈ marks a conversion by molar mass, not a printed value.

Assays:
[1] = biological target: T1, Amyloid-beta precursor protein (Homo sapiens, UniProt P05067); experiment: Inhibition of Abeta42 (unknown origin) aggregation assessed as ThT fluorescence at 330 uM measured after 24 hrs by ThT fluorescence assay relative to DMSO control; set-up: scale not given: the % may be the effect or the level left
[2] = biological target: T1, Amyloid-beta precursor protein; experiment: Inhibition of Abeta42 (unknown origin) aggregation measured after 24 hrs by ThT fluorescence assay
[3] = Ratio of drug level in brain to plasma in Swiss mouse at 2 mg/kg, iv measured after 5 mins; assay type: ADME, organism-based; conditions: brain and plasma, read-out: BPR
[4] = Aqueous solubility of the compound in PBS at pH 7.4; assay type: physicochemical
[5] = Half life in human liver S9 fraction; assay type: ADME, subcellular
[6] = tested on: Liver; experiment: Clearance in human liver S9 fraction; assay type: ADME, subcellular
[7] = Apparent permeability of the compound from apical to basolateral side; assay type: physicochemical; conditions: not told
[8] = tested on: P-gp; experiment: Substrate activity at P-gp (unknown origin) assessed as efflux ratio of apparent permeability of the compound; assay type: ADME; conditions: human, not told
[9] = Lipophilicity, logD of the compound; assay type: physicochemical; conditions: octanol/water
[10] = Half life in Swiss mouse plasma at 2 mg/kg, iv; assay type: ADME, organism-based
[11] = AUC in Swiss mouse plasma at 2 mg/kg, iv; assay type: ADME, organism-based
[12] = Volume of distribution in Swiss mouse plasma at 2 mg/kg, iv; assay type: ADME, organism-based
[13] = Cmax in Swiss mouse plasma at 2 mg/kg, iv; assay type: ADME, organism-based; set-up: dose 2 mg/kg, route intravenous
[14] = Half life in Swiss mouse brain at 2 mg/kg, iv; assay type: ADME, organism-based
[15] = AUC in Swiss mouse brain at 2 mg/kg, iv; assay type: ADME, organism-based
[16] = Volume of distribution in Swiss mouse brain at 2 mg/kg, iv; assay type: ADME, organism-based
[17] = Cmax in Swiss mouse brain at 2 mg/kg, iv; assay type: ADME, organism-based; set-up: dose 2 mg/kg, route intravenous

T1 sequence (P05067 whole entry): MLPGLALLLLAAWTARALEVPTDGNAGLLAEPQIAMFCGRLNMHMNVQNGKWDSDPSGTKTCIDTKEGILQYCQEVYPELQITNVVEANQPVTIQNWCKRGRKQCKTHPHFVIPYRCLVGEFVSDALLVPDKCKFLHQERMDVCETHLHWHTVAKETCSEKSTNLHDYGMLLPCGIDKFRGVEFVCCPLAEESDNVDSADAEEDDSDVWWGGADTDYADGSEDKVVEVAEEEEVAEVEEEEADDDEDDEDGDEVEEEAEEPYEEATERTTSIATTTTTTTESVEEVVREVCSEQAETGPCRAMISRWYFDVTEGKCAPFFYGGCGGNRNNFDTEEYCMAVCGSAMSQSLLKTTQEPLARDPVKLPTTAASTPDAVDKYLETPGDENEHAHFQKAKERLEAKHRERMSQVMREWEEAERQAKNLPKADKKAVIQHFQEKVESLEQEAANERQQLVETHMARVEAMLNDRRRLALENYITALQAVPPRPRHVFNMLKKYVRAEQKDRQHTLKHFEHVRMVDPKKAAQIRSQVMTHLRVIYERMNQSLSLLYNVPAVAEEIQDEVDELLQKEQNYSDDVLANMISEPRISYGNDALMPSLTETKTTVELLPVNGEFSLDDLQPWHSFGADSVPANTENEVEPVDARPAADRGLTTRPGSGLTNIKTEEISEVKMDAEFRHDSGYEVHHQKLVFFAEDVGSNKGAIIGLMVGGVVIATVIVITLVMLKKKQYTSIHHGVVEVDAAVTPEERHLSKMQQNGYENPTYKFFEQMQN

Row | Activity [1] [%] | IC50 [2] [µM] | SMILES | other results
1 | 23 | – | CNc1cccc(CCNc2cccc(CCCNc3ccccn3)n2)n1 | –
2 | > 60 | – | CNc1cccc(CNc2cccc(CCNc3ccccn3)n2)n1 | –
3 | – | 1.3 | Nc1c(/N=N/c2ccc(-c3ccc(/N=N/c4cc(S(=O)(=O)O)c5ccccc5c4N)cc3)cc2)cc(S(=O)(=O)O)c2ccccc12 [CONGO RED] | –
4 | 12 | 25 | CNc1cccc(NCCc2cccc(NCCc3ccccn3)n2)n1 | Kp at 5 min [3]: 5.98; solubility [4]: > 200 µM; half-life [5]: 10 min; CLH [6]: 70 µL/min/mg; Papp A→B [7]: 492 nm/s; efflux ratio [8]: 0.78; logD [9]: 2.96; half-life [10]: 37.8 min; AUC [11]: 0.15 µg·h/mL; Vd [12]: 12 L/kg; Cmax [13]: 0.308 µg/mL; half-life [14]: 314 min; AUC [15]: 0.863 µg·h/mL; Vd [16]: 18.9 L/kg; Cmax [17]: 1.84 µg/mL
5 | 23 | – | CNc1cccc(CCCNc2cccc(CCCNc3ccccn3)n2)n1 | –
6 | 16 | 280 | CNc1cccc(CCNc2cccc(CCNc3ccccn3)n2)n1 | –
7 | 36 | – | CNc1cccc(NCCc2ccccn2)n1 | –
8 | 16 | 240 | CNc1cccc(CCNc2cccc(CCN(c3ccccn3)c3ccccn3)n2)n1 | –
9 | > 60 | – | CNc1cccc(CNc2cccc(CNc3ccccn3)n2)n1 | solubility [4]: 18 µM (≈ 5.77 µg/mL)
10 | 12 | – | CNc1cccc(CCNc2cccc(NCCc3ccccn3)n2)n1 | solubility [4]: > 200 µM
11 | 23 | – | CNc1cccc(CNc2cccc(CCN(c3ccccn3)c3ccccn3)n2)n1 | –
12 | 53 | – | CNc1cccc(CCNc2cccc(CNc3ccccn3)n2)n1 | –
13 | 12 | 17 | CNc1cccc(NCCCc2cccc(NCCCc3ccccn3)n2)n1 | –
14 | 23 | – | CNc1cccc(CCNc2cccc(NC)n2)n1 | –
15 | 14 | – | CNc1cccc(NCCc2cccc(NCc3ccccn3)n2)n1 | –
